What was measured:
Assay in all cases: relative viability (nuclei count vs DMSO), 5 days (fraction); higher = more cells survive
[1] = compound: C1CC1C(=O)NC2=NNC3=C2C=CC(=C3)C4=CC(=CC=C4)C(=O)NC5CC5 [XMD13-2] + COc1cccc2cc(-c3nc([C@H]4CC[C@H](C(=O)O)CC4)n4ncnc(N)c34)[nH]c12 [OSI-027] (partner 0.5 µM)
Outline: (§1)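 Each reported value is a median over duplicate plates. It expresses relative viability: treated-well nuclei count divided by vehicle-well nuclei count. Lung cancer cell lines in 1536-well plates were dosed by pin tool a day after seeding, alone with one drug or with a fixed anchor-drug dose plus five library-drug doses (not always all listed) in √10 steps, and nuclei were counted after 5 days.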

[2] = compound: Cc1ccc(C(=O)Nc2cccc(C(F)(F)F)c2)cc1Nc1cncc(C(N)=O)c1 [ALW-II-49-7] + COc1cc2c(Oc3ccc(NC(=O)C4(C(=O)Nc5ccc(F)cc5)CC4)cc3F)ccnc2cc1OCCCN1CCOCC1 [Foretinib] (partner 0.25 µM)
Outline: as §1

[3] = compound: Cc1ccc(C(=O)Nc2cccc(C(F)(F)F)c2)cc1Nc1cncc(C(N)=O)c1 [ALW-II-49-7] + Nc1ncn([C@H]2C[C@H](O)[C@@H](CO)O2)c(=O)n1 [Decitabine] (partner 2 µM)
Outline: as §1

[4] = compound: Cc1nc(Nc2ncc(C(=O)Nc3c(C)cccc3Cl)s2)cc(N2CCN(CCO)CC2)n1 [Dasatinib] + Nc1ncn([C@H]2C[C@H](O)[C@@H](CO)O2)c(=O)n1 [Decitabine] (partner 2 µM)
Outline: as §1

Row | Cell Line | relative viability ([1]; first compound 0.05 µM) | relative viability ([1]; first compound 0.1581 µM) | relative viability ([1]; first compound 0.5 µM) | relative viability ([1]; first compound 1.581 µM) | relative viability ([1]; first compound 5 µM) | relative viability ([2]; first compound 0.08 µM) | relative viability ([2]; first compound 0.253 µM) | relative viability ([2]; first compound 0.8 µM) | relative viability ([2]; first compound 2.53 µM) | relative viability ([2]; first compound 8 µM) | relative viability ([3]; first compound 0.08 µM) | relative viability ([3]; first compound 0.253 µM) | relative viability ([3]; first compound 0.8 µM) | relative viability ([3]; first compound 8 µM) | relative viability ([4]; first compound 0.005 µM) | relative viability ([4]; first compound 0.01581 µM) | relative viability ([4]; first compound 0.05 µM) | relative viability ([4]; first compound 0.1581 µM) | relative viability ([4]; first compound 0.5 µM) | relative viability ([3]; first compound 2.53 µM)
1 | LOU-NH91 | 0.753 | 0.716 | 0.759 | 0.663 | 0.815 | 0.912 | 0.945 | 0.921 | 0.879 | 0.944 | 0.785 | 0.824 | 0.844 | 0.861 | 0.83 | 0.819 | 0.743 | 0.66 | 0.421 | –
2 | LU99A | 0.312 | 0.273 | 0.264 | 0.302 | 0.29 | 0.82 | 0.936 | 0.92 | 0.867 | 0.768 | – | 1.03 | 1 | 1.09 | 0.827 | 0.819 | 0.833 | 0.655 | 0.46 | 0.839
3 | LXF-289 | 0.874 | 0.761 | 0.829 | 0.697 | 0.867 | 0.98 | 1.05 | 1 | 1.07 | 1.04 | 0.391 | 0.372 | 0.411 | 0.443 | 0.398 | 0.336 | 0.31 | 0.358 | 0.142 | 0.407
4 | NCI-H23 | 0.761 | 0.544 | 0.593 | 0.411 | 0.783 | 0.923 | 1.01 | 1.06 | 0.993 | 1.03 | 0.311 | 0.286 | 0.303 | 0.333 | 0.273 | 0.293 | 0.286 | 0.27 | 0.236 | 0.328
5 | NCI-H522 | 0.71 | 0.692 | 0.742 | 0.701 | 0.658 | – | – | – | – | – | 0.67 | 0.669 | 0.697 | 0.692 | 0.745 | 0.767 | 0.671 | 0.655 | 0.61 | 0.732
6 | NCI-H1299 | – | – | – | – | – | 1.09 | 1.16 | 1.09 | 0.996 | 0.965 | – | – | – | – | – | – | – | – | – | –
7 | NCI-H1563 | 0.811 | 0.731 | 0.74 | 0.788 | 0.751 | 0.942 | 0.97 | 0.948 | 0.95 | 0.899 | – | – | – | – | – | – | – | – | – | –
8 | NCI-H1623 | 0.417 | 0.43 | 0.408 | 0.363 | 0.462 | 0.889 | 0.809 | 0.87 | 0.649 | 0.859 | – | – | – | – | – | – | – | – | – | –
9 | NCI-H1648 | 0.251 | 0.266 | 0.241 | 0.291 | 0.259 | – | – | – | – | – | 0.545 | 0.48 | 0.531 | 0.509 | 0.494 | 0.477 | 0.506 | 0.457 | 0.241 | 0.454
10 | NCI-H1703 | – | – | – | – | – | 0.271 | 0.407 | 0.306 | 0.308 | 0.352 | – | – | – | – | – | – | – | – | – | –
11 | NCI-H1792 | 0.772 | 0.813 | 0.696 | 0.914 | 0.669 | – | – | – | – | – | 0.553 | 0.356 | 0.486 | 0.633 | 0.544 | 0.51 | 0.469 | 0.342 | 0.178 | 0.506
12 | NCI-H2228 | 0.824 | 0.605 | 0.597 | 0.518 | 0.546 | 1.07 | 0.651 | 0.736 | 0.848 | 0.795 | – | – | – | – | – | – | – | – | – | –

Reference: the supplement of paper PMC10307832
